Assay results reported in patent US20260109721A1, “IONIZABLE CATIONIC LIPIDS INCORPORATING SILICON: SYNTHESIS AND LNP FORMULATION” (priority 2023, published 2026).

How the values were obtained:
[1] = LNP size, PDI and zeta potential by Dynamic Light Scattering (Method A); format: physicochemical; details: LNP formulated with the lipid, DLS
Experimental: (§1) The synthesized lipids were tested in term of in vitro transfection efficacy and toxicity on HeLa cells. In order to perform the mentioned biological tests, appropriate LNPs had to be formulated from the synthesized lipids. The formulation technique was different in Method A and B. The particle size, polydispersity index (PDI) and zeta potential of resulting LNPs were determined by means of Dynamic Light Scattering technique (DLS). Prior to biological testing the encapsulation efficiency (EE) of the loaded LNPs was determined by using RiboGreen RNA assay. In case of Method A Luc mRNA while in case of Method B GFP mRNA was transfected into the cells. In parallel with the transfection experiments, toxicity of the investigated LNPs was determined, in case of Method A resazurin assay while in case of Method B MTT assay was used. Additionally, the toxicity of the lipids was investigated on HepG2 cells and IC50 values were determined.
• 1. If needed, prepare stock solutions by solving known amounts of lipid powder into an appropriate solvent. The recommended solvent is ethanol and the recommended concentration is typically in the range 10-50 mM. Higher concentrations are preferred to allow flexibility on mRNA-LNP concentration. • 2. Remove the lipid stock solutions from the −20° C. freezer. For long-term storage, −80° C. is used. • 3. Check the vials for precipitation, DOPE (CAS #4004-05-1) (20 mM) and DSPE-PEG (CAS #474922-26-4) (5 mM) may need a 5-30 minute incubation step at 37° C. with intermittent vortexing to resuspend all contents. […] As a last resort, lipids may be heated to 50° C. to resuspend, time should be kept as short as possible to prevent oxidation or other modifying or degradative processes. • 4. Mix the lipids by vortexing for 2 minutes. • 5. […] Cooling the solution prevent excessive evaporation of ethanol or similar solvents upon opening. • 6. Meanwhile, thaw the RNA samples, including the latest SecNLuc control, by inserting the frozen tube in a room temperature aluminium block. • 7. Prepare for each LNP-formulation with identical mRNA component, an RNA master mix according to Table 1 below in a fresh tube. Use of a master mix allows more precise comparison of lipid formulations relative to each other. Split the master mix over a number of fresh tubes equal to the number of samples+controls. Each tube contains 375 μl of mRNA in 10 mM Citrate pH 4.0. • 8. Prepare for each LNP formulation with identical lipid composition a Lipid master mix according to Table 1 below in a fresh tube, exclude the lipid of interest. Use of a master mix allows more precise comparison of the novel ionizable lipid relative to each other. Split the master mix over a number of fresh tubes equal to the number of samples+controls. Each tube contains 65.5 μl of lipid master mix. • 9. Add the ionizable lipid of interest to the equally divide lipid master mix. Mix well by pipetting up and down. Label the tube according to the ionizable lipid used. • 10. Power on the L1 FM (L1 Formulation Machine uses 2 high-speed syringe pumps to mix lipids in organic solvents with mRNA in acidic aquous solution to generate well-defined LNPs. The microfluidic mixing chip involves a dean-type structure performing the high-efficiency mixing at a total flow rate (TFR) of around 12 ml/min at a 3:1 mixing ratio) and allow it to do a calibration of motor positions.
• 18. Fill a fresh syringe (C) through a blunt 18G stainless steel needle with the previously prepared RNA mixture of step 6. The volume should be approximately 85% of total formulation volume+25 μl (dead-volume). Make sure to remove all air bubbles by tapping. • 19. Fill a fresh syringe (D) through a blunt 18G stainless steel needle with the Lipid master mix. The volume should be approximately […] of total formulation volume+25 μl (dead-volume). Again, Make sure to remove all bubbles. • 20. Attach the syringes in the correct orientation, syringe A on the left and syringe B on the right • 21.

[2] = system: HepG2 cell line; test: In vitro toxicity study on HepG2 cell line (resazurin, viability and IC50); format: cell-based, human; details: resazurin; for Viability (%) at different lipid concentrations, mean: HepG2 cells, 48 h post-treatment, relative to ethanol vehicle controls; for IC50: Homo sapiens, lipid toxicity, HepG2, 48 h post-treatment, 6.25-800 μM, read-out: IC50 value, μM (on HepG2 cell)
Experimental: as §1
HepG2 cell line (human hepatocellular carcinoma) were maintained in DMEM medium supplemented with 10% FBS. Cell toxicity measurements were carried out in 384-well microtiter plates with 1000 cells seeded in each well. Test measurements were carried out in triplicate, and control measurements in quadruplicate. After an overnight incubation, the cells were treated with an increasing concentration of the test compounds (6.25, 12.5, 25, 50, 100, 200, 400, 800 μM). […] 48 h post-treatment, following visual inspection under an inverted microscope, cell viability was measured by resazurin assay. Viability of treated cells was calculated relative to that of ethanol vehicle controls. Concentration response curves (CRCs) were obtained and corresponding IC50 values were calculated where applicable and are shown in Table 9.
Resazurin reagent (Sigma-Aldrich) was dissolved in PBS (pH 7.4) at 0.15 mg/ml concentration, 0.22 μm filtered and aliquoted at −20° C., 10 μl resazurin stock solution was added to wells. After 5 hours incubation at 37° C. under 5% CO2 fluorescence (530 nm excitation/580 nm emission) was recorded on a multimode microplate reader.

| Compound | PDI [1] | Size (nm) [1] [nm] | Zeta potential (mV) [1] [mV] | Viability (%) at different lipid concentrations, mean ([2]; 6.25 μM lipid) [%] | Viability (%) at different lipid concentrations, mean ([2]; 12.5 μM lipid) [%] | Viability (%) at different lipid concentrations, mean ([2]; 25 μM lipid) [%] | Viability (%) at different lipid concentrations, mean ([2]; 50 μM lipid) [%] | Viability (%) at different lipid concentrations, mean ([2]; 100 μM lipid) [%] | Viability (%) at different lipid concentrations, mean ([2]; 200 μM lipid) [%] | Viability (%) at different lipid concentrations, mean ([2]; 400 μM lipid) [%] | Viability (%) at different lipid concentrations, mean ([2]; 800 μM lipid) [%] | IC50 [2] [µM] |
| --- | --- | --- | --- | --- | --- | --- | --- | --- | --- | --- | --- | --- |
| CCCCC/C=C\C/C=C\CCCCCCCCOC(CCCCCCCCCCCCCCC)O[Si](C)(C)OCCCCCCN(CCO)CCO (stereo not drawn) [Example 43, (23Z,26Z)-3-(2-hydroxyethyl)-11,11-dimethyl-13-pentadecyl-10,12,14-trioxa-3-aza-11-siladotriaconta-23,26-dien-1-ol] | 0.006 | 144.9 | −7.944 | 100.9 | 98.7 | 102.2 | 111.9 | 114.9 | 108.9 | 92.1 | 89.8 | > 800 |
| CCCCC/C=C\C/C=C\CCCCCCCC(OCCCCCCCCCCCCCCCC)O[Si](C)(C)OCCCCCCN(CCO)CCO (stereo not drawn) [Example 44, 13-((8Z,11Z)-heptadeca-8,11-dien-1-yl)-3-(2-hydroxyethyl)-11,11-dimethyl-10,12,14-trioxa-3-aza-11-silatriacontan-1-ol] | 0.083 | 131.2 | −8.273 | 100.8 | 98.5 | 106.8 | 112.7 | 122.0 | 118.8 | 103.0 | 94.0 | > 800 |
| CCCCC/C=C\C/C=C\CCCCCCCC(OCCCCCCCC/C=C\CCCCCCCC)O[Si](C)(C)OCCCCCCN(CCO)CCO (stereo not drawn) [Example 45, (Z)-13-((8Z,11Z)-heptadeca-8,11-dien-1-yl)-3-(2-hydroxyethyl)-11,11-dimethyl-10,12,14-trioxa-3-aza-11-siladotriacont-23-en-1-ol] | 0.043 | 136.8 | −8.85 | 105.6 | 99.4 | 100.4 | 106.0 | 109.5 | 107.1 | 64.9 | 1.1 | 421 |
| CCCCC/C=C\C/C=C\CCCCCCCCOC(CCCCCCC/C=C\CCCCCCCC)O[Si](C)(C)OCCCCCCN(CCO)CCO (stereo not drawn) [Example 46, (23Z,26Z)-13-((Z)-heptadec-8-en-1-yl)-3-(2-hydroxyethyl)-11,11-dimethyl-10,12,14-trioxa-3-aza-11-siladotriaconta-23,26-dien-1-ol] | 0.095 | 129.4 | −7.772 | 103.7 | 100.6 | 101.2 | 97.4 | 103.1 | 101.8 | 99.8 | 92.1 | > 800 |
| CCCCCCCC/C=C\CCCCCCCCOC(CCCCCCC/C=C\CCCCCCCC)O[Si](C)(C)OCCCCCCN(CCO)CCO (stereo not drawn) [Example 47, (Z)-13-((Z)-heptadec-8-en-1-yl)-3-(2-hydroxyethyl)-11,11-dimethyl-10,12,14-trioxa-3-aza-11-siladotriacont-23-en-1-ol] | 0.014 | 125.0 | −8.469 | 104.8 | 98.6 | 99.5 | 105.3 | 112.3 | 116.3 | 97.9 | 93.6 | > 800 |
| CCCCC/C=C\C/C=C\CCCCCCCCOC(CCCCCCC/C=C\C/C=C\CCCCC)O[Si](C)(C)OCCCCCCN(CCO)CCO (stereo not drawn) [Example 48, (23Z,26Z)-13-((8Z,11Z)-heptadeca-8,11-dien-1-yl)-3-(2-hydroxyethyl)-11,11-dimethyl-10,12,14-trioxa-3-aza-11-siladotriaconta-23,26-dien-1-ol] | 0.052 | 149.6 | −7.501 | 97.4 | 102.2 | 95.7 | 97.8 | 99.6 | 101.5 | 98.4 | 68.3 | > 800 |
| CCCCCCCCCCCCCCCCOC(CCCCCCCCCCCCCCC)O[Si](C)(C)OCCCCCCN(CCO)CCO (stereo not drawn) [Example 49, 3-(2-hydroxyethyl)-11,11-dimethyl-13-pentadecyl-10,12,14-trioxa-3-aza-11-silatriacontan-1-ol] | 0.396 | 171.9 | −12.77 | 101.6 | 100.3 | 100.4 | 101.0 | 106.4 | 118.4 | 112.6 | 103.0 | > 800 |
